Measurements reported in patent publication US12077503B2, “Substituted cyclic amides and their use as herbicides” (FMC CORPORATION, priority 2015, dated 2024).

How the values were obtained:
Assay type in all cases: in vivo
[1] = tested on: barnyardgrass (Echinochloa crus-galli); test: Test G Post-Emergence Protocol; details: Echinochloa crus-galli, post-emergence, 312 h; for pest or weed control at 15.625 g/ha: 15.625 g ai/ha, evaluated after 13 days (100=total damage to plant; 0=no damage to plant), read-out: Barnyardgrass damage rating; for pest or weed control at 62.5 g/ha: 62.5 g ai/ha, read-out: Barnyardgrass damage rating (100=total damage to plant; 0=no damage to plant); for pest or weed control at 62.5 g/ha / pest or weed control at 250 g/ha: evaluated after 13 days; for pest or weed control at 250 g/ha: 250 g ai/ha, read-out: damage to plant, Barnyardgrass (100=total damage to plant; 0=no damage to plant)
How it was run: (§1)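 A glasshouse post-emergence test: 8-day-old plants sprayed at 15.625, 62.5 or 250 g/ha, then grown at 24/16 °C day/night with 14 h light and 65% humidity. Damage rated 13 days later, 0–100.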

[2] = tested on: ivy-leaved morning glory (Ipomoea hederacea); test: Test G Post-Emergence Protocol; details: Ipomoea, post-emergence, 312 h; for pest or weed control at 15.625 g/ha: 15.625 g ai/ha, evaluated after 13 days (100=total damage to plant; 0=no damage to plant), read-out: Morningglory, Ivy-leaved damage rating; for pest or weed control at 62.5 g/ha: 62.5 g ai/ha, read-out: Morningglory, Ivy-leaved damage rating (100=total damage to plant; 0=no damage to plant); for pest or weed control at 62.5 g/ha / pest or weed control at 250 g/ha: evaluated after 13 days; for pest or weed control at 250 g/ha: 250 g ai/ha, read-out: damage to plant, Morningglory, Ivy-leaved (100=total damage to plant; 0=no damage to plant)
How it was run: as §1

[3] = tested on: redroot pigweed (Amaranthus retroflexus); test: Test G Post-Emergence Protocol; details: Amaranthus retroflexus, post-emergence, 312 h; for pest or weed control at 15.625 g/ha: 15.625 g ai/ha, evaluated after 13 days (100=total damage to plant; 0=no damage to plant), read-out: Pigweed, Redroot damage rating; for pest or weed control at 62.5 g/ha: 62.5 g ai/ha, read-out: Pigweed, Redroot damage rating (100=total damage to plant; 0=no damage to plant); for pest or weed control at 62.5 g/ha / pest or weed control at 250 g/ha: evaluated after 13 days; for pest or weed control at 250 g/ha: 250 g ai/ha, read-out: damage to plant, Pigweed, Redroot (100=total damage to plant; 0=no damage to plant)
How it was run: as §1

[4] = tested on: giant foxtail (Setaria faberi); test: Test G Post-Emergence Protocol; details: Setaria faberi, post-emergence, 312 h; for pest or weed control at 15.625 g/ha: 15.625 g ai/ha, evaluated after 13 days (100=total damage to plant; 0=no damage to plant), read-out: Foxtail, Giant damage rating; for pest or weed control at 62.5 g/ha: 62.5 g ai/ha, read-out: Foxtail, Giant damage rating (100=total damage to plant; 0=no damage to plant); for pest or weed control at 62.5 g/ha / pest or weed control at 250 g/ha: evaluated after 13 days; for pest or weed control at 250 g/ha: 250 g ai/ha, read-out: damage to plant, Foxtail, Giant (100=total damage to plant; 0=no damage to plant)
How it was run: as §1

corn (Zea mays) [5] = test: Test G Post-Emergence Protocol; details: Zea mays, post-emergence, 312 h; for plant injury at 15.625 g/ha: 15.625 g ai/ha, evaluated after 13 days (100=total damage to plant; 0=no damage to plant), read-out: Corn damage rating; for plant injury at 62.5 g/ha: 62.5 g ai/ha, read-out: Corn damage rating (100=total damage to plant; 0=no damage to plant); for plant injury at 62.5 g/ha / plant injury at 250 g/ha: evaluated after 13 days; for plant injury at 250 g/ha: 250 g ai/ha, read-out: damage to plant, Corn (100=total damage to plant; 0=no damage to plant)
How it was run: as §1

[6] = tested on: velvetleaf (Abutilon theophrasti); test: Test G Post-Emergence Protocol; details: Abutilon theophrasti, post-emergence, 312 h; for pest or weed control at 15.625 g/ha: 15.625 g ai/ha, evaluated after 13 days (100=total damage to plant; 0=no damage to plant), read-out: Velvetleaf damage rating; for pest or weed control at 62.5 g/ha: 62.5 g ai/ha, read-out: Velvetleaf damage rating (100=total damage to plant; 0=no damage to plant); for pest or weed control at 62.5 g/ha / pest or weed control at 250 g/ha: evaluated after 13 days; for pest or weed control at 250 g/ha: 250 g ai/ha, read-out: damage to plant, Velvetleaf (100=total damage to plant; 0=no damage to plant)
How it was run: as §1

[7] = tested on: barnyardgrass (Echinochloa crus-galli); test: Test G Pre-Emergence Protocol; details: Echinochloa crus-galli, pre-emergence, 312 h, evaluated after 13 days; for pest or weed control at 15.625 g/ha: 15.625 g ai/ha, read-out: Barnyard grass damage rating (100=total damage to plant; 0=no damage to plant); for pest or weed control at 62.5 g/ha: 62.5 g ai/ha, 100=total damage to plant, 0=no damage to plant, read-out: plant damage rating, Barnyardgrass; for pest or weed control at 250 g/ha: 250 g ai/ha, read-out: Barnyardgrass damage rating (100=total damage to plant; 0=no damage to plant)
How it was run: (§2)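 Herbicidal effect was rated 13 days post-application on a scale where 100 equals total damage. Spraying took place the day after sowing, using 15.625, 62.5 or 250 g/ha of compound in a 50:50 acetone/water solution with 0.5% Tween 20.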

[8] = tested on: ivy-leaved morning glory (Ipomoea hederacea); test: Test G Pre-Emergence Protocol; details: Ipomoea, pre-emergence, 312 h, evaluated after 13 days; for pest or weed control at 15.625 g/ha: 15.625 g ai/ha, read-out: Morning-glory, Ivy-leaved damage rating (100=total damage to plant; 0=no damage to plant); for pest or weed control at 62.5 g/ha: 62.5 g ai/ha, 100=total damage to plant, 0=no damage to plant, read-out: plant damage rating, Morningglory, Ivy-leaved; for pest or weed control at 250 g/ha: 250 g ai/ha, read-out: Morningglory, Ivy-leaved damage rating (100=total damage to plant; 0=no damage to plant)
How it was run: as §2

[9] = tested on: redroot pigweed (Amaranthus retroflexus); test: Test G Pre-Emergence Protocol; details: Amaranthus retroflexus, pre-emergence, 312 h, evaluated after 13 days; for pest or weed control at 15.625 g/ha: 15.625 g ai/ha; for pest or weed control at 15.625 g/ha / pest or weed control at 250 g/ha: read-out: Pigweed, Redroot damage rating (100=total damage to plant; 0=no damage to plant); for pest or weed control at 62.5 g/ha: 62.5 g ai/ha, 100=total damage to plant, 0=no damage to plant, read-out: plant damage rating, Pigweed, Redroot; for pest or weed control at 250 g/ha: 250 g ai/ha
How it was run: as §2

[10] = tested on: giant foxtail (Setaria faberi); test: Test G Pre-Emergence Protocol; details: Setaria faberi, pre-emergence, 312 h, evaluated after 13 days; for pest or weed control at 15.625 g/ha: 15.625 g ai/ha; for pest or weed control at 15.625 g/ha / pest or weed control at 250 g/ha: read-out: Foxtail, Giant damage rating (100=total damage to plant; 0=no damage to plant); for pest or weed control at 62.5 g/ha: 62.5 g ai/ha, 100=total damage to plant, 0=no damage to plant, read-out: plant damage rating, Foxtail, Giant; for pest or weed control at 250 g/ha: 250 g ai/ha
How it was run: as §2

corn (Zea mays) [11] = test: Test G Pre-Emergence Protocol; details: Zea mays, pre-emergence, 312 h, evaluated after 13 days; for plant injury at 15.625 g/ha: 15.625 g ai/ha; for plant injury at 15.625 g/ha / plant injury at 250 g/ha: read-out: Corn damage rating (100=total damage to plant; 0=no damage to plant); for plant injury at 62.5 g/ha: 62.5 g ai/ha, 100=total damage to plant, 0=no damage to plant, read-out: plant damage rating, Corn; for plant injury at 250 g/ha: 250 g ai/ha
How it was run: as §2

[12] = tested on: velvetleaf (Abutilon theophrasti); test: Test G Pre-Emergence Protocol; details: Abutilon theophrasti, pre-emergence, 312 h, evaluated after 13 days; for pest or weed control at 15.625 g/ha: 15.625 g ai/ha; for pest or weed control at 15.625 g/ha / pest or weed control at 250 g/ha: read-out: Velvetleaf damage rating (100=total damage to plant; 0=no damage to plant); for pest or weed control at 62.5 g/ha: 62.5 g ai/ha, 100=total damage to plant, 0=no damage to plant, read-out: plant damage rating, Velvetleaf; for pest or weed control at 250 g/ha: 250 g ai/ha
How it was run: as §2

Row | SMILES | pest or weed control at 15.625 g/ha [1] | pest or weed control at 62.5 g/ha [1] | pest or weed control at 250 g/ha [1] | pest or weed control at 15.625 g/ha [2] | pest or weed control at 62.5 g/ha [2] | pest or weed control at 250 g/ha [2] | pest or weed control at 15.625 g/ha [3] | pest or weed control at 62.5 g/ha [3] | pest or weed control at 250 g/ha [3] | pest or weed control at 15.625 g/ha [4] | pest or weed control at 62.5 g/ha [4] | pest or weed control at 250 g/ha [4] | plant injury at 15.625 g/ha (corn (Zea mays) [5]) | plant injury at 62.5 g/ha (corn (Zea mays) [5]) | plant injury at 250 g/ha (corn (Zea mays) [5]) | pest or weed control at 15.625 g/ha [6] | pest or weed control at 62.5 g/ha [6] | pest or weed control at 250 g/ha [6] | pest or weed control at 15.625 g/ha [7] | pest or weed control at 62.5 g/ha [7] | other results
1 | CN1C[C@@H](c2ccc(C(F)(F)F)cc2)[C@H](C(=O)Nc2nnc(C(F)(F)F)o2)C1=O (racemic) [Compound 1604] | 0% | 0% | 0% | 0% | 0% | 0% | 0% | 0% | 0% | 0% | 0% | 0% | 0% | 0% | 0% | 0% | 0% | 0% | 0% | 0% | pest or weed control at 250 g/ha [7]: 0%; pest or weed control at 15.625 g/ha [8]: 0%; pest or weed control at 62.5 g/ha [8]: 0%; pest or weed control at 250 g/ha [8]: 0%; pest or weed control at 15.625 g/ha [9]: 0%; pest or weed control at 62.5 g/ha [9]: 0%; pest or weed control at 250 g/ha [9]: 0%; pest or weed control at 15.625 g/ha [10]: 0%; pest or weed control at 62.5 g/ha [10]: 0%; pest or weed control at 250 g/ha [10]: 0%; plant injury at 15.625 g/ha (corn (Zea mays) [11]): 0%; plant injury at 62.5 g/ha (corn (Zea mays) [11]): 0%; plant injury at 250 g/ha (corn (Zea mays) [11]): 0%; pest or weed control at 15.625 g/ha [12]: 0%; pest or weed control at 62.5 g/ha [12]: 0%; pest or weed control at 250 g/ha [12]: 0%
2 | Cc1c(Cl)cccc1NC(=O)[C@@H]1C(=O)N(C)C[C@H]1c1ccc(C(F)(F)F)cc1 (racemic) [Compound 1607] | 0% | 50% | 60% | 20% | 30% | 60% | 0% | 40% | 70% | 50% | 80% | 80% | 0% | 0% | 60% | 10% | 30% | 40% | 0% | 40% | pest or weed control at 250 g/ha [7]: 80%; pest or weed control at 15.625 g/ha [8]: 0%; pest or weed control at 62.5 g/ha [8]: 10%; pest or weed control at 250 g/ha [8]: 20%; pest or weed control at 15.625 g/ha [9]: 0%; pest or weed control at 62.5 g/ha [9]: 20%; pest or weed control at 250 g/ha [9]: 30%; pest or weed control at 15.625 g/ha [10]: 50%; pest or weed control at 62.5 g/ha [10]: 80%; pest or weed control at 250 g/ha [10]: 80%; plant injury at 15.625 g/ha (corn (Zea mays) [11]): 0%; plant injury at 62.5 g/ha (corn (Zea mays) [11]): 0%; plant injury at 250 g/ha (corn (Zea mays) [11]): 10%; pest or weed control at 15.625 g/ha [12]: 0%; pest or weed control at 62.5 g/ha [12]: 0%; pest or weed control at 250 g/ha [12]: 20%
3 | CN1C[C@@H](c2ccc(C(F)(F)F)cc2)[C@H](C(=O)Nc2ccsc2)C1=O (racemic) [Compound 1611] | 0% | 0% | 0% | 0% | 0% | 0% | 0% | 0% | 0% | 0% | 0% | 0% | 0% | 0% | 0% | 0% | 0% | 0% | 0% | 0% | pest or weed control at 250 g/ha [7]: 0%; pest or weed control at 15.625 g/ha [8]: 0%; pest or weed control at 62.5 g/ha [8]: 0%; pest or weed control at 250 g/ha [8]: 0%; pest or weed control at 15.625 g/ha [9]: 0%; pest or weed control at 62.5 g/ha [9]: 0%; pest or weed control at 250 g/ha [9]: 0%; pest or weed control at 15.625 g/ha [10]: 0%; pest or weed control at 62.5 g/ha [10]: 0%; pest or weed control at 250 g/ha [10]: 0%; plant injury at 15.625 g/ha (corn (Zea mays) [11]): 0%; plant injury at 62.5 g/ha (corn (Zea mays) [11]): 0%; plant injury at 250 g/ha (corn (Zea mays) [11]): 0%; pest or weed control at 15.625 g/ha [12]: 0%; pest or weed control at 62.5 g/ha [12]: 0%; pest or weed control at 250 g/ha [12]: 0%
